This note sets out measurements from patent US20240043435A1, “TYK-2 INHIBITOR” (BEIGENE, LTD., priority 2020, published 2024).

Assay [1] has as its target T1, TYK2-JH2 (aa 575-869, in-house) protein (Homo sapiens, UniProt P29597).
T1 construct: TYK2-JH2 (aa 575-869, in-house) protein; made in house
Description: TYK2-JH2 biochemical assay (HTRF probe displacement). The format is binding. To be noted: Biochemical assay; read-out: TYK2-JH2 IC50. The essentials: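 HTRF probe-displacement format: compound dilutions (10 points, 5-fold, from 500 uM in DMSO at 500×) were combined with 0.2 nM TYK2-JH2 protein for 0.5 h at room temperature in HEPES pH 7.5 buffer with MgCl2, BSA, DTT and Brij-35. Percent inhibition came from the 615/665 nm fluorescence ratio, fitted to a four-parameter logistic for IC50.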
Background: TR-FRET usually uses a lanthanide donor and a delayed reading to cut background.

Assay [2] deals with JAK2, TYK2/p-STAT4 (Tyr693) activated by IL-12 in NK-92 cell line. Description: IL-12-JAK2, TYK2/p-STAT4 (Tyr693) inhibition IC50 cellular assay. The format is cell-based. To be noted: for IC50: NK92, Cellular assay, read-out: pSTAT4/IL-12 IC50; for Selectivity fold (TYK2/JAK2): Cellular assay, pSTAT5/GM-CSF IC50 vs pSTAT4/IL-12 IC50. The essentials:
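p-STAT4 (Tyr693) in lysates was measured by AlphaLISA SureFire Ultra after a 30 min IL-12 challenge (40 ng/ml final) at 37° C. Overnight-starved, IL-2-free NK-92 cells had been pretreated 1 h with compound at 10000 to 0.61 nM (4-fold, 8 points). IC50 values came from four-parameter logistic fitting.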

The next assay relates to pSTAT5/GM-CSF. Description: pSTAT5/GM-CSF cellular assay (JAK2 selectivity). The class given is cell-based.
Setting [3] is: pSTAT5/GM-CSF IC50 over pSTAT4/IL-12 IC50.

T1 sequence (P29597 575-869): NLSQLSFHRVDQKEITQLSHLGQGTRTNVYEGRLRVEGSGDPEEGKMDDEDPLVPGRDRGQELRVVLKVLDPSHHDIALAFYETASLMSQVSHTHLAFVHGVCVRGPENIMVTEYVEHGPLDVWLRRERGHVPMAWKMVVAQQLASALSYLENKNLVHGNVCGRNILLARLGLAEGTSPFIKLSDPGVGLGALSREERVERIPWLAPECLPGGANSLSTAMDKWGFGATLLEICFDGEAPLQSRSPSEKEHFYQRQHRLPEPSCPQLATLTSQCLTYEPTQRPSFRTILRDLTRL

For `COc1cc(Nc2cc(NC(C)=O)ncc2-c2ccn(C(C)C)n2)cc(S(C)(=O)=O)c1` [Example M27, N-(5-(1-isopropyl-1H-pyrazol-3-yl)-4-((3-methoxy-5-(methylsulfonyl)phenyl)amino)pyridin-2-yl)acetamide], the figures for the IC50 (in assay [1]; in assay [2]; with pSTAT5/GM-CSF) were 0.035 nM, 3.85 nM and > 10000 nM, respectively. Besides, in the assay with pSTAT5/GM-CSF (setting [3]), the “Selectivity fold (TYK2/JAK2)” value is given as >2597 fold.

Take `CC(=O)Nc1cc(Nc2cc(OCC3CC3)cc(S(C)(=O)=O)n2)c(-c2ccc(C(C)(C)O)cn2)cn1` [Example H30, N-(4′-((4-(cyclopropylmethoxy)-6-(methylsulfonyl)pyridin-2-yl)amino)-5-(2-hydroxypropan-2-yl)-[2,3′-bipyridin]-6′-yl)acetamide]: the IC50 was 0.023 nM in assay [1], 0.972 nM in assay [2] and > 10000 nM with pSTAT5/GM-CSF. The “Selectivity fold (TYK2/JAK2)” value in assay [2] is on record as >10288 fold.

With `CC(=O)Nc1cc(Nc2cccc(S(C)(=O)=O)n2)c(-c2ccc(N3CCOCC3=O)cn2)cn1` [Example G2, N-(4′-((6-(methylsulfonyl)pyridin-2-yl)amino)-5-(3-oxomorpholino)-[2,3′-bipyridin]-6′-yl)acetamide], the results for the IC50 (in assay [1]; in assay [2]; in the assay on pSTAT5/GM-CSF) were 0.067 nM, 14.2 nM and > 10000 nM, respectively. The “Selectivity fold (TYK2/JAK2)” value in the assay on pSTAT5/GM-CSF (pSTAT5/GM-CSF vs pSTAT4/IL-12) is >704 fold.

As for `CC(=O)Nc1cc(Nc2cc(C(F)(F)F)cc(S(C)(=O)=O)n2)c(-c2ccn(C)n2)cn1` [Example J52, N-(5-(1-methyl-1H-pyrazol-3-yl)-4-((6-(methylsulfonyl)-4-(trifluoromethyl)pyridin-2-yl)amino)pyridin-2-yl)acetamide], the IC50 in assay [1] was 0.021 nM; in assay [2] it was 1.43 nM; in the assay with pSTAT5/GM-CSF it was > 10000 nM. The “Selectivity fold (TYK2/JAK2)” value in the assay on pSTAT5/GM-CSF (setting [3]) is on record as >699 fold.

For the compound `CC(=O)Nc1cc(Nc2cccc(S(C)(=O)=O)c2)c(-c2ccn(C)n2)cn1` [Example J6, N-(5-(1-methyl-1H-pyrazol-3-yl)-4-((3-(methylsulfonyl)phenyl)amino)pyridin-2-yl)acetamide], the IC50 in assay [1] was 0.033 nM; in assay [2], 7.94 nM; in the assay with pSTAT5/GM-CSF it was > 10000 nM. Also, the “Selectivity fold (TYK2/JAK2)” value in the assay on pSTAT5/GM-CSF (setting [3]) was >1259 fold.

For the compound `CC(=O)Nc1cc(Nc2cc(N3CCOC[C@@H]3C)cc(S(C)(=O)=O)n2)c(-c2ccc(N3C[C@@H](C)O[C@@H](C)C3)cn2)cn1` [Example C23, N-(5-(cis-2,6-dimethylmorpholino)-4′-((4-((S)-3-methylmorpholino)-6-(methylsulfon-yl)pyridin-2-yl)amino)-[2,3′-bipyridin]-6′-yl)ace-tamide], the IC50 in assay [1] worked out at 0.022 nM; in assay [2] it was 0.63 nM; in the assay with pSTAT5/GM-CSF it was 2600 nM. Besides, in assay [2], the “Selectivity fold (TYK2/JAK2)” value is 4126 fold.

Take `CC(=O)Nc1cc(Nc2cc(OC3CCC3)cc(S(C)(=O)=O)n2)c(-c2ccn(C)n2)cn1` [Example J44, N-(4-((4-cyclobutoxy-6-(methylsulfonyl)pyridin-2-yl)amino)-5-(1-methyl-1H-pyrazol-3-yl)pyridin-2-yl)acetamide]: the figures for the IC50 (in assay [1]; in assay [2]; in the assay with pSTAT5/GM-CSF) were 0.022 nM, 0.358 nM and > 10000 nM, respectively. Further, the “Selectivity fold (TYK2/JAK2)” value with pSTAT5/GM-CSF (setting [3]) is listed as >27932 fold.

In the case of `CC(=O)Nc1cc(Nc2cc(C#N)cc(S(C)(=O)=O)n2)c(-c2ccn(C)n2)cn1` [Example J26, N-(4-((4-cyano-6-(methylsulfonyl)pyridin-2-yl)amino)-5-(1-methyl-1H-pyrazol-3-yl)pyridin-2-yl)acetamide], the values for the IC50 (in assay [1]; in assay [2]; in the assay with pSTAT5/GM-CSF) were 0.023 nM, 5.5 nM and > 10000 nM, respectively. In addition, in the assay on pSTAT5/GM-CSF (setting [3]), the “Selectivity fold (TYK2/JAK2)” value was >1818 fold.

For the compound `CC(=O)Nc1cc(Nc2cc(OC(C)C)cc(S(C)(=O)=O)n2)c(-c2ccn(CCO)n2)cn1` [Example A14, N-(5-(1-(2-hydroxyethyl)-1H-pyrazol-3-yl)-4-((4-isopropoxy-6-(methylsulfonyl)pyridin-2-yl)amino)pyridin-2-yl)acetamide], the figures for the IC50 (in assay [1]; in assay [2]; in the assay on pSTAT5/GM-CSF) were 0.022 nM, 0.969 nM and > 10000 nM, respectively. Besides, the “Selectivity fold (TYK2/JAK2)” value in assay [2] is reported as >10319 fold.

As for `CC(=O)Nc1cc(Nc2cc(F)cc(S(C)(=O)=O)c2)c(-c2ccc(C(C)(C)O)cn2)cn1` [Example H19, N-(4′-((3-fluoro-5-(methylsulfonyl)phenyl)amino)-5-(2-hydroxypropan-2-yl)-[2,3′-bipyridin]-6′-yl)acetamide], the IC50 in assay [1] is 0.028 nM; in assay [2] it was 3.2 nM; in the assay on pSTAT5/GM-CSF it was > 10000 nM. The “Selectivity fold (TYK2/JAK2)” value in assay [2] is on record as >3125 fold.

On to `CC(=O)Nc1cc(Nc2cc(C(F)(F)F)cc(S(C)(=O)=O)c2)c(-c2ccc(C(C)(C)O)cn2)cn1` [Example H3, N-(5-(2-hydroxypropan-2-yl)-4′-((3-(methylsulfonyl)-5-(trifluoromethyl)phenyl)amino)-[2,3′-bipyridin]-6′-yl)acetamide], for which the IC50 in assay [1] stood at 0.048 nM; in assay [2], 8.52 nM; in the assay on pSTAT5/GM-CSF, 7180 nM. Also, the “Selectivity fold (TYK2/JAK2)” value in assay [2] is reported as >843 fold.

As for `CC(=O)Nc1cc(Nc2cc(O[C@H]3C[C@H](O)C3)cc(S(C)(=O)=O)c2)c(-c2ccn(C)n2)cn1` [Example J37, N-(4-((3-((trans)-3-hydroxycyclobutoxy)-5-(methylsulfonyl)phenyl)amino)-5-(1-methyl-1H-pyrazol-3-yl)pyridin-2-yl)acetamide], the IC50 in assay [1] is 0.035 nM; in assay [2] it was 19.1 nM; in the assay with pSTAT5/GM-CSF it was > 10000 nM. In addition, the “Selectivity fold (TYK2/JAK2)” value in the assay with pSTAT5/GM-CSF (setting [3]) is >523 fold.

As for `COc1cc(S(C)(=O)=O)nc(Nc2cc(NC(C)=O)ncc2-c2ccc3c(n2)OCC(C)(C)O3)c1OC` [Example Q26, N-(4-((3,4-dimethoxy-6-(methylsulfonyl)pyridin-2-yl)amino)-5-(2,2-dimethyl-2,3-dihydro-[1,4]dioxino[2,3-b]pyridin-6-yl)pyridin-2-yl)acetamide], the figures for the IC50 (in assay [1]; in assay [2]; in the assay with pSTAT5/GM-CSF) were 0.032 nM, 1.53 nM and 700 nM, respectively. Besides, in the assay on pSTAT5/GM-CSF (setting [3]), the “Selectivity fold (TYK2/JAK2)” value worked out at 457 fold.

`CC(=O)Nc1cc(Nc2cc(C)cc(S(C)(=O)=O)n2)c(-c2ccc(C(C)(C)O)cn2)cn1` [Example H9, N-(5-(2-hydroxypropan-2-yl)-4′-((4-methyl-6-(methylsulfonyl)pyridin-2-yl)amino)-[2,3′-bipyridin]-6′-yl)acetamide]: the results for the IC50 (in assay [1]; in assay [2]; in the assay on pSTAT5/GM-CSF) were 0.016 nM, 0.503 nM and 1580 nM, respectively. Also, the “Selectivity fold (TYK2/JAK2)” value in assay [2] came out at 3147 fold.

As for `CC(=O)Nc1cc(Nc2cc(C)cc(S(C)(=O)=O)n2)c(-c2ccc(C(C)(C)N)cn2)cn1` [Example A20, N-(5-(2-aminopropan-2-yl)-4′-((4-methyl-6-(methylsulfonyl)pyridin-2-yl)amino)-[2,3′-bipyridin]-6′-yl)acetamide], the IC50 in assay [1] stood at 0.03 nM; in assay [2], 1.12 nM; in the assay on pSTAT5/GM-CSF it was 2380 nM. Besides, the “Selectivity fold (TYK2/JAK2)” value in assay [2] stood at 2124 fold.

Regarding `CC(=O)Nc1cc(Nc2cccc(S(=O)(=O)C(C)C)n2)c(-c2ccn(C)n2)cn1` [Example J29, N-(4-((6-(isopropylsulfonyl)pyri-din-2-yl)amino)-5-(1-methyl-1H-pyrazol-3-yl)pyridin-2-yl)acetamide], the IC50 in assay [1] was 0.045 nM; in assay [2], 12.4 nM; in the assay with pSTAT5/GM-CSF it was > 10000 nM. In the assay on pSTAT5/GM-CSF (setting [3]), the “Selectivity fold (TYK2/JAK2)” value was >805 fold.
